Results on eight molecules are retold here after DBAASP.

Test systems include Staphylococcus aureus 75; Escherichia coli 804; Escherichia coli 780; Escherichia coli W3110; Candida albicans; Escherichia coli UB1005.
What all share (test): ≥ marks a high value that may be exact or a test limit, other limits are often not marked, values filed in µg/mL are converted to µM
For assay [1], the system named is Klebsiella pneumoniae ATCC 700603.
For assay [2], the system named is Staphylococcus aureus 113.
The test system of assay [3] is Pseudomonas aeruginosa ATCC 27853.
The test system of assay [4] is Acinetobacter baumannii 9931.
Assay [5] concerns Staphylococcus aureus ATCC 29213.
The subject of assay [6] is Bacillus subtilis ATCC 23857.
Assay [7] deals with Acinetobacter baumannii ATCC 19606.
In assay [8] the test system is Staphylococcus epidermidis ATCC 12228.
Assay [9] concerns Acinetobacter baumannii 97830.
In assay [10] the test system is Pseudomonas aeruginosa 73.
Assay [11] deals with Pseudomonas aeruginosa ATCC 9027.
Assay [12] concerns Pseudomonas aeruginosa 50.
The test system of assay [13] is Shigella dysenteriae ATCC 51302.
The test system of assay [14] is Staphylococcus aureus ATCC 25923.
In assay [15] the test system is Escherichia coli ATCC 25922.
Assay [16] relates to Bacillus subtilis ATCC 9372.
Assay [17] deals with Salmonella typhimurium ATCC 50013.
The subject of assay [18] is Streptococcus pneumoniae ATCC 49619.
In assay [19] the test system is Klebsiella pneumoniae ATCC BAA-1705.
The subject of assay [20] is Salmonella enterica serovar Typhimurium.
Assay [21] concerns Pseudomonas aeruginosa 919.
For assay [22], the system named is Staphylococcus epidermidis.
Assay [23] concerns Pseudomonas aeruginosa H103.
For assay [24], the system named is Pseudomonas aeruginosa 253.
In assay [25] the test system is Pseudomonas aeruginosa 910.
The test system of assay [26] is Enterococcus faecalis ATCC 29212.
For assay [27], the system named is Pseudomonas aeruginosa PAO1.

In brackets after ≈: the same amount, converted by molar mass.

For the molecule `C[C@H](N)C(=O)N[C@@H](Cc1c[nH]c2ccccc12)C(=O)N[C@@H](CCCN=C(N)N)C(=O)N[C@@H](Cc1c[nH]c2ccccc12)C(=O)N[C@@H](Cc1c[nH]c2ccccc12)C(=O)N[C@@H](Cc1c[nH]c2ccccc12)C(=O)N[C@@H](CCCN=C(N)N)C(=O)N[C@@H](Cc1c[nH]c2ccccc12)C(=O)N[C@@H](C)C(N)=O` [AWRWWWRWA], the minimum inhibitory concentration (MIC) was 8 µM (≈ 11.2 µg/mL) in assay [1]; 8 µM (≈ 11.2 µg/mL) in assay [2]; 32 µM (≈ 44.9 µg/mL) in assay [3]; at least 32 µM in assay [4]; 8 µM (≈ 11.2 µg/mL) in assay [5]; 8 µM (≈ 11.2 µg/mL) in assay [6]. Also, the minimal inhibitory concentration (MIC) is 4 µM (≈ 5.61 µg/mL) in the assay with Staphylococcus aureus 75; 32 µM (≈ 44.9 µg/mL) in [7]; 8 µM (≈ 11.2 µg/mL) in [8]; 8 µM (≈ 11.2 µg/mL) against Escherichia coli 804; 8 µM (≈ 11.2 µg/mL) in [9]; at least 32 µM in assay [10]. Also, the MIC was 32 µM (≈ 44.9 µg/mL) in [11], 16 µM (≈ 22.4 µg/mL) with Escherichia coli 780 and at least 32 µM in assay [12].

Consider `NC(=O)[C@H](Cc1ccccc1)NC(=O)[C@H](CCCN=C(N)N)NC(=O)[C@H](CCCN=C(N)N)NC(=O)[C@H](Cc1c[nH]c2ccccc12)NC(=O)[C@H](Cc1c[nH]c2ccccc12)NC(=O)[C@H](Cc1c[nH]c2ccccc12)NC(=O)[C@H](CCCN=C(N)N)NC(=O)[C@H](CCCN=C(N)N)NC(=O)[C@@H](N)Cc1ccccc1` [FRRWWWRRF], for which the MIC in [1] worked out at 16 µM (≈ 23.9 µg/mL); in assay [2] it was 8 µM (≈ 12 µg/mL); in assay [3], 4 µM (≈ 5.98 µg/mL); in [4], 16 µM (≈ 23.9 µg/mL); in assay [5] it was 4 µM (≈ 5.98 µg/mL); in [6], 2 µM (≈ 2.99 µg/mL). The MIC amounted to 4 µM (≈ 5.98 µg/mL) against Staphylococcus aureus 75; 16 µM (≈ 23.9 µg/mL) in [7]; 8 µM (≈ 12 µg/mL) in assay [8]; 16 µM (≈ 23.9 µg/mL) against Escherichia coli 804; 8 µM (≈ 12 µg/mL) in assay [9]; 16 µM (≈ 23.9 µg/mL) in assay [10]. In addition, the MIC came out at 8 µM (≈ 12 µg/mL) in [11], 16 µM (≈ 23.9 µg/mL) against Escherichia coli 780 and 4 µM (≈ 5.98 µg/mL) in [12].

In the case of `CC(C)C[C@H](NC(=O)CN)C(=O)N[C@@H](CO)C(=O)N[C@@H](CCCN=C(N)N)C(=O)N[C@@H](CC(C)C)C(=O)N[C@@H](Cc1ccccc1)C(=O)N[C@H](C(=O)N[C@@H](C)C(=O)N[C@@H](CC(C)C)C(=O)N[C@@H](CCCCN)C(=O)O)[C@@H](C)O` [GLSRLFTALK], the minimum inhibitory concentration (MIC) in assay [13] was at least 232 µM; in assay [3] it was 57.9 µM (≈ 64 µg/mL); in assay [14] it was 14.5 µM (≈ 16 µg/mL); in [15] it was 29 µM (≈ 32 µg/mL); in [16], 14.5 µM (≈ 16 µg/mL); in [17], 29 µM (≈ 32 µg/mL). The molecule further showed an MIC in [18] of at least 57.9 µM.

With `CC[C@H](C)[C@H](N)C(=O)N[C@@H](CC(C)C)C(=O)N[C@H](C(=O)N[C@@H](C)C(=O)N[C@@H](CS)C(=O)N[C@@H](Cc1c[nH]c2ccccc12)C(=O)NCC(=O)N[C@@H](CC(C)C)C(=O)N[C@@H](CCCCN)C(=O)N[C@@H](CC(C)C)C(=O)N[C@@H](CC(C)C)C(=O)N[C@@H](CCCN=C(N)N)C(=O)N[C@@H](Cc1ccc(O)cc1)C(=O)N[C@@H](CCCN=C(N)N)C(=O)N[C@@H](CCCN=C(N)N)C(=O)N[C@H](C(=O)N[C@@H](Cc1ccc(O)cc1)C(=O)O)[C@@H](C)CC)[C@@H](C)CC` [ILIACWGLKLLRYRRIY], the minimum inhibitory concentration (MIC) in [19] was at least 128 µM; in the assay on Escherichia coli W3110 it was 4 µM (≈ 8.6 µg/mL).

For `CC[C@H](C)[C@H](N)C(=O)N[C@@H](CCCN=C(N)N)C(=O)N[C@@H](Cc1c[nH]c2ccccc12)C(=O)N[C@@H](Cc1c[nH]c2ccccc12)C(=O)N[C@@H](Cc1c[nH]c2ccccc12)C(=O)N[C@@H](CCCN=C(N)N)C(=O)N[C@H](C(N)=O)[C@@H](C)CC` [IRWWWRI], the MIC is 32 µM (≈ 35.7 µg/mL) in [1]; 8 µM (≈ 8.91 µg/mL) in [2]; 16 µM (≈ 17.8 µg/mL) in assay [3]; at least 32 µM in [4]; 4 µM (≈ 4.46 µg/mL) in [5]; 8 µM (≈ 8.91 µg/mL) in [6]. The minimal inhibitory concentration (MIC) against Staphylococcus aureus 75 was 8 µM (≈ 8.91 µg/mL); in [7], 64 µM (≈ 71.3 µg/mL); in assay [8], 8 µM (≈ 8.91 µg/mL); against Escherichia coli 804, 16 µM (≈ 17.8 µg/mL); in assay [9], at least 32 µM; in assay [10], at least 32 µM. The figures for the MIC (in [11]; with Escherichia coli 780; in assay [12]) were 32 µM (≈ 35.7 µg/mL), 16 µM (≈ 17.8 µg/mL) and at least 32 µM, respectively.

As to `CC[C@H](C)[C@H](N)C(=O)N[C@@H](Cc1c[nH]c2ccccc12)C(=O)N[C@@H](Cc1c[nH]c2ccccc12)C(=O)N[C@@H](C)C(=O)N[C@@H](CCCCN)C(=O)N[C@@H](Cc1c[nH]c2ccccc12)C(=O)NCC(=O)N[C@@H](CC(C)C)C(=O)N[C@@H](CC(=O)O)C(=O)N[C@@H](CC(C)C)C(=O)N[C@@H](CC(C)C)C(=O)N[C@@H](CCCN=C(N)N)C(=O)N[C@@H](Cc1ccc(O)cc1)C(=O)N[C@@H](CCCN=C(N)N)C(=O)N[C@@H](CCCN=C(N)N)C(=O)N[C@H](C(=O)N[C@@H](Cc1c[nH]c2ccccc12)C(=O)O)[C@@H](C)CC` [IWWAKWGLDLLRYRRIW], the MIC in assay [19] was at least 128 µM; in the assay with Escherichia coli W3110, at least 64 µM.

As for `CC[C@H](C)[C@H](NC(=O)[C@H](CCCN=C(N)N)NC(=O)[C@H](CCCN=C(N)N)NC(=O)[C@H](CC(C)C)NC(=O)[C@@H](N)CCCN=C(N)N)C(=O)N[C@H](C(=O)N[C@H](C(=O)N[C@H](C(=O)N[C@@H](CCCN=C(N)N)C(=O)N[C@H](C(=O)N[C@@H](C)C(=O)N[C@@H](CCCN=C(N)N)C(=O)O)C(C)C)[C@@H](C)CC)C(C)C)C(C)C` [RLRRIVVIRVAR], the MIC in [20] stood at 5.31 µM (≈ 8 µg/mL); in assay [21], 16 µM (≈ 24.1 µg/mL); in assay [14], 5.31 µM (≈ 8 µg/mL); in assay [22] it was 1.33 µM (≈ 2 µg/mL); against Candida albicans, 10.6 µM (≈ 16 µg/mL); in [23] it was 5.31 µM (≈ 8 µg/mL). The MIC in assay [24] is 16 µM (≈ 24.1 µg/mL); in assay [25] it was at least 32 µM; against Escherichia coli UB1005 it was 2.65 µM (≈ 4 µg/mL); in [26] it was 5.31 µM (≈ 8 µg/mL); in assay [27] it was 16 µM (≈ 24.1 µg/mL).

With `CC[C@H](C)[C@H](NC(=O)[C@H](CCCCN)NC(=O)[C@H](CCCCN)NC(=O)[C@H](Cc1c[nH]c2ccccc12)NC(=O)[C@H](CCCCN)NC(=O)[C@H](Cc1c[nH]c2ccccc12)NC(=O)[C@H](CC(C)C)NC(=O)[C@H](CCCCN)NC(=O)[C@H](CC(C)C)NC(=O)CNC(=O)[C@H](Cc1c[nH]c2ccccc12)NC(=O)[C@H](CCCCN)NC(=O)[C@H](C)NC(=O)[C@H](Cc1c[nH]c2ccccc12)NC(=O)[C@H](CCCN=C(N)N)NC(=O)[C@@H](N)Cc1c[nH]c2ccccc12)C(=O)N[C@@H](Cc1ccc(O)cc1)C(=O)O` [WRWAKWGLKLWKWKKIY], the MIC in assay [19] is 16 µM (≈ 38 µg/mL); in the assay with Escherichia coli W3110 it was 2 µM (≈ 4.75 µg/mL).
